Experimental data published in patent US20090162425A1, “METHODS AND COMPOSITIONS FOR INHIBITING UNDESIRABLE CELLULAR PROLIFERATION BY TARGETED LIPOSOME DELIVERY OF ACTIVE AGENTS” (University of Tennessee Research Foundation, priority 2007, published 2009).

Assays:
[1] = target: avidin (Gallus gallus, UniProt P02701); conditions: avidin-biotin interaction; cited from earlier work
[2] = system: C6 GFP flank glioma tumors; conditions: 2 mg/Kg paclitaxel administered systemically, flank model
Protocol: Tumor growth was measured on every 3rd day with a vernier caliper, and tumor volume was measured using the formula
Injections were made using the retro orbital route of administration. For monitoring changes in tumor volume, tumor growth was measured every 3rd day with a vernier caliper, and tumor volume was measured as described in previous section.
The tumor growth delay was defined as the time required for a treated tumor to reach a specific volume (130 mm^3) minus the time for the untreated tumor to reach that same volume.

[3] = system: C6 GFP intracranial glioma tumors; conditions: 2 mg/Kg paclitaxel administered systemically, intracranial model
Protocol: The animals were monitored visually on a daily basis and weights were measured on every 3rd day until they lost 10% of their body weight.
After 5 days of tumor cell inoculation, animals were assigned randomly to 3 groups (n=3-4 per group). […] The animals were then sacrificed on the 9th day of treatment and the brains were isolated.
Tumor areas were measured METAMORPH® software after taking optical images with a CCD camera with GFP filter.

[4] = in vivo; cited from earlier work
[5] = cited from earlier work

Chain of avidin (P02701 25-152): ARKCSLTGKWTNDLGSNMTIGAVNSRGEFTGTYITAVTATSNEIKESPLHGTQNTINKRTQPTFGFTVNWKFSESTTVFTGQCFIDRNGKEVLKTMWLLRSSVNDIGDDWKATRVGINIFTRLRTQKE

| Structure (SMILES) | dissociation half-life [1] | gross deleterious effects (clinical monitoring and daily weights) [2] | gross deleterious effects (clinical monitoring and daily weights) [3] | drug bound to plasma proteins [4] | terminal half-life (mean) [4] [h] | terminal half-life (range) [4] [h] | log P [5] |
| --- | --- | --- | --- | --- | --- | --- | --- |
| O=C(O)CCCC[C@@H]1SC[C@@H]2NC(=O)N[C@@H]21 [biotin] | about 89 days | – | – | – | – | – | – |
| CC(=O)O[C@H]1C(=O)[C@@]2(C)[C@H]([C@H](OC(=O)c3ccccc3)[C@]3(O)C[C@H](OC(=O)[C@H](O)[C@@H](NC(=O)c4ccccc4)c4ccccc4)C(C)=C1C3(C)C)[C@]1(OC(C)=O)CO[C@@H]1C[C@@H]2O [paclitaxel] | – | no gross deleterious effects | no gross deleterious effects | More than 90% | 5 | 1.3 to 8.6 | 3.96 |
